Measurements published in patent US6211439A, “Herbicide resistance in plants” (MGI Pharma, Inc, priority 1995, dated 2001).
In brackets after ≈: the same amount, converted by molar mass. Read-outs that look alike come from different tables or passages of the source.

What was measured:
[1] = tested on: Callus tissue from line UV18; test: Callus growth inhibition, line UV18; type: cell-based, maize; details: line UV18 vs control tissue; based on herbicide amount giving 50% reduction in growth rate
Procedure: The UV18 cell line was first observed after 25 weeks of selection comprising 9 subculture intervals. The tissue in the selection procedure had been exposed to 0.1 mg per liter 214 for four subculture intervals followed by exposure to 0.3 mg per liter 214 for four subculture intervals. UV18 was identified during the ninth subculture as a rapidly growing sector of tissue with good morphology.
(§1) Callus tissue from line QJ22 was tested also with the compound 567. The numbers represent the fold increase in herbicide concentration that can be tolerated by each of the cell lines as compared to control tissue. The values were calculated based on the amount of herbicide that gave a 50% reduction in growth rate.

[2] = tested on: acetohydroxyacid synthase (AHAS); test: AHAS activity assay, extract of maize cell cultures / control tissue; type: biochemical
Procedure: Plant cell culture material was ground with sand in a cold mortar and pestle in an equal quantity (w/v) of cell disruption media containing 0.05 M potassium phosphate (pH 7.0), 0.1 mM MgSO4, and 0.5 mM dithiothreitol. The preparation was centrifuged at 11,000×g for 20 minutes and the supernatant assayed for AHAS activity. Assays were conducted in 1 ml volumes containing 0.05 M potassium phosphate (pH 8.0), 40 mM pyruvate, 5 mM MgCl2, 0.1 mM thiamine pyrophosphate, 0.2 ml cell extract, and various concentrations of the herbicide of interest. The reaction mixtures were incubated at 30° C. for 75 minutes and the reaction terminated with the addition of 0.1 ml of 50% (v/v) H2 SO4. […] To 0.2 ml of reaction mixture, 0.8 ml of water, 0.5 ml of 0.5% (w/v) creatine, and 0.5 ml of 5% (w/v) naphthol in 10% (w/v) NaOH was added. After mixing, solutions were incubated at room temperature for one hour.

[3] = tested on: line XA17 tissue; test: Callus growth inhibition, resistant line XA17; type: cell-based, maize; details: Zea mays, 336 h, read-out: level giving a 50% growth inhibition
Procedure: (§2) Therefore the effects of 214 were determined on callus growth. Quantities of tissue averaging 90 mg in size were transferred to nutrient agar maintenance media containing concentrations of 214 ranging from 0.003 to 3 mg per liter. Eight tissue pieces were placed on each plate with three plates per herbicide concentration. After 14 days growth, the tissue was weighed again.
Initially, the maximum level of 214 in which line XA17 would grow stably was determined. Stock tissue which had been maintained in the presence of 0.1 mg per liter 214 was transferred to media containing 214 levels ranging up to 30 mg per liter. Tissue was maintained for several subculture intervals and the growth rate evaluated.

[4] = tested on: maize cell suspension cultures; test: Reversal of herbicide growth inhibition by leucine, valine and isoleucine; type: cell-based; details: 1 mM each of leucine, isoleucine, and valine; cell suspension cultures
Procedure: Growth inhibition studies were carried out in 125 ml flasks containing 30 ml of test media. 997 was filter sterilized and added to cooling media following autoclaving. Test media were innoculated with cells to give a settled cell volume (15 minutes without centrifugation) of 0.2 ml per 10 ml of suspension. After either six or seven days growth settled cell volumes were again quantitated.
Cells were tested to determine whether the herbicide induced inhibition of growth was the result of the decreased availability of the three branched chain amino acids. Cells were exposed to toxic levels of 997 (1×10^-6 M) in media either supplemented with 1 mM concentrations of leucine, valine, and isoleucine or with no supplementation. Culture growth rates in the absence of amino acid supplementation and in the presence of 1×10^-6 M 997 were reduced to 16% that of herbicide free cultures.
Experiments were conducted to determine the optimum supplementation levels of each of the three amino acids to obtain maximum herbicide protection and for gaining insight into the site of action of the compound.

[5] = tested on: QJ22 seedlings; test: Seedling assay, QJ22 seedlings homozygous for the resistance trait; type: in vivo, maize; details: seedling assays
Description: Plants were regenerated from cell line QJ22 and seed obtained as described previously for XA17, supra. […] Seeds which are uniformly homozygous for the resistance trait were obtained as described for XA17, supra.

[6] = tested on: unselected maize callus tissue; test: Callus culture growth inhibition, unselected tissue; type: cell-based; details: Zea mays, 336 h, read-out: level giving a 50% growth inhibition
Procedure: as §2

[7] = tested on: AHAS activity of line XA17 tissue; test: AHAS activity assay, line XA17 tissue; type: biochemical, maize; details: for IC50: AHAS activity of line XA17 tissue, read-out: concentration inhibiting AHAS activity 50%
Procedure: Assays were conducted as a modification of the procedure of Smith et al. (1979, Molec. Gen. Genet. 169: 299-314). Plant cell culture material was ground with sand in a cold mortar and pestle in an equal quantity (w/v) of cell disruption media containing 0.05 M potassium phosphate (pH 7.0), 0.1 mM MgSO4, and 0.5 mM dithiothreitol. The preparation was centrifuged at 11,000×g for 20 minutes and the supernatant assayed for AHAS activity. Assays were conducted in 1 ml volumes containing 0.05 M potassium phosphate (pH 8.0), 40 mM pyruvate, 5 mM MgCl2, 0.1 mM thiamine pyrophosphate, 0.2 ml cell extract, and various concentrations of the herbicide of interest. The reaction mixtures were incubated at 30° C. for 75 minutes and the reaction terminated with the addition of 0.1 ml of 50% (v/v) H2 SO4. Following further incubation at 40° C. for 20 minutes, the acetoin formed from acetolactate by acidification was quantitated using the method of Westerfield (1945, J. Biol. Chem. 161: 495). To 0.2 ml of reaction mixture, 0.8 ml of water, 0.5 ml of 0.5% (w/v) creatine, and 0.5 ml of 5% (w/v) naphthol in 10% (w/v) NaOH was added. After mixing, solutions were incubated at room temperature for one hour. The development of pink color was quantitated by measuring light absorbance at 530 nm.
Assays were conducted to determine if acetohydroxyacid synthase extracted from line XA17 tissue was altered with respect to herbicide sensitivity. Such a change would signify that an alteration of this enzyme conferred the herbicide resistance. Assays were conducted as described supra.

[8] = tested on: Callus tissue from line QJ22; test: Callus growth inhibition, line QJ22; type: cell-based, maize; details: line QJ22 vs control tissue; based on herbicide amount giving 50% reduction in growth rate
Procedure: as §1

[9] = tested on: XA17 seedlings homozygous for the herbicide resistance trait; test: Seedling assay, XA17 seedlings homozygous for the resistance trait; type: in vivo, maize; details: for resistance of XA17 homozygous seedlings: vs control seedlings
Procedure: (§3) Twenty control seeds and ten XA17 seeds were surface sterilized with 2.6% sodium hypochlorite for twenty minutes and then washed with sterile distilled water. The seed was imbibed overnight in sterile water containing a small quantity of the fungicide, captan (N-trichloromethylthio-4-cyclohexene-1,2-dicarboximide). The mature embryos were then excised from the seed and plated scutellum side down on solid MS media without 2,4-D. Ten control seeds were plated on media containing no 214 and ten were plated in the presence of 6×10^-8M 214 which had been incorporated into the medium after autoclaving but before gelling. All ten XA17 seeds were plated in the presence of 6×10^-8 M 214. Seedlings were evaluated seven days after plating.
(§4) XA17 seeds homozygous for the resistance trait were obtained as described in Section 6.4.6. […] Assays were conducted as described in Section 6.4.5.

[10] = tested on: control seedlings; test: Seedling assay, control (herbicide sensitive) seedlings; type: in vivo, maize; details: Zea mays, read-out: concentration inhibiting shoot growth 50%
Description: Seeds to be used as controls in the heritability assay were obtained from regenerated plants from an herbicide sensitive cell line of the same genetic background as line XA17. These regenerated plants were crossed with pollen obtained from a herbicide sensitive inbred B73 plant grown from seed. Seeds were harvested approximately forty days after pollination.
as §3, §4

[11] = tested on: Tomato callus lines; details: callus cultures initiated from regenerated plants (Thomas and Pratt, 1983); cited from earlier work

SMILES | Callus Growth Fold Increase in Tolerance [1] [fold] | effect on AHAS enzyme activity ([2]; AHAS activity from maize cell cultures) | IC50 ([2]; AHAS activity of control tissue, read-out: concentration inhibiting AHAS activity 50%) [µM] | IC50 [3] [µg/mL] | effect of media supplementation with leucine, isoleucine, valine on growth inhibition [4] | tolerance of QJ22 homozygous seedlings compared to control seedlings [5] | IC50 [6] [µg/mL] | IC50 [7] [µM] | change in herbicide sensitivity of AHAS, line XA17 vs control, on a concentration basis ([7]; maize, ahas, line xa17) [fold] | Callus Growth Fold Increase in Tolerance [8] | shoot growth inhibition at the highest concentration tested ([9]; 3×10^-6 M, seedlings homozygous for the resistance trait) | resistance of XA17 homozygous seedlings [9] | IC50 ([3]; line XA17, two week growth inhibition study) [µg/mL] | IC50 ([10]; control seedlings) [µM] | increase over wild-type in resistance [11] [fold] | IC50 ([9]; Zea mays, read-out: concentration inhibiting shoot growth 50%) [µM] | IC50 [10] [µM]
CCc1cnc(C2=NC(=O)C(C)(C(C)C)N2)c(C(=O)O)c1 (stereo not drawn) [compound 499, 5-ethyl,2-(5-isopropyl-5-methyl-4-oxo-2-imidazolin-2-yl)nicotinic acid] | 100 | inhibited the enzyme activity | 1 to 10 | > 30 | reversed the growth inhibitory effects | 30 fold | 0.1 to 0.3 (≈ 0.346 to 1.04 µM) | 3000 to 30000 | ≥ 1000 | 30-50 fold | – | – | – | – | – | – | –
Cc1cc(C)n2nc(S(=O)(=O)Nc3c(Cl)cccc3Cl)nc2n1 [compound 567, 5,7-dimethyl-N-(2,6-dichlorophenyl)-1,2,4-triazolo[1,5-a)pyrimidine-2-sulfonamide] | – | – | – | – | – | no tolerance | 0.1 to 0.3 (≈ 0.269 to 0.806 µM) | – | – | – | no inhibition | at least 30 fold | > 30 | 0.1 | – | – | –
C[n+]1ccc(-c2cc[n+](C)cc2)cc1 [paraquat] | – | – | – | – | – | – | – | – | – | – | – | – | – | – | ≥ 30 | – | –
COc1nc(C)nc(NC(=O)NS(=O)(=O)c2ccccc2Cl)n1 [chlorsulfuron, 2-chloro-N-[(4-methoxy-6-methyl-1,3,5-triazin-2-yl)aminocarbonyl]benzenesulfonamide] | – | – | – | 10 (≈ 28 µM) | – | no tolerance | 0.01 (≈ 0.028 µM) | 0.3 | – | – | – | 10 fold | – | – | – | 0.1 | 0.01
